From patent US6586216B2 (Purdue Research Foundation, priority 1997, dated 2003)
Several values for one entry are separate records, joined by “and”; a condition that tells them apart may be missing. Identical values can stand only once. Like-named read-outs stand apart in the source and are kept apart here.

Key:
[1] = biological target: T1, Bacillus subtilis glutamine PRPP amidotransferase variant R307Q (Bacillus subtilis, UniProt P00497, R318Q); assay: Inhibition of enzyme activity (glutamate formation) by nucleotides, mutant R307Q; assay type: biochemical
T1 construct: Enzymes of the B. subtilis class are synthesized with an NH2 terminal propeptide; made in house; host or cells: E. coli strain TX158 (purF), plasmid pBsF/R307Q
T1 sequence (P00497 12-476 R318Q): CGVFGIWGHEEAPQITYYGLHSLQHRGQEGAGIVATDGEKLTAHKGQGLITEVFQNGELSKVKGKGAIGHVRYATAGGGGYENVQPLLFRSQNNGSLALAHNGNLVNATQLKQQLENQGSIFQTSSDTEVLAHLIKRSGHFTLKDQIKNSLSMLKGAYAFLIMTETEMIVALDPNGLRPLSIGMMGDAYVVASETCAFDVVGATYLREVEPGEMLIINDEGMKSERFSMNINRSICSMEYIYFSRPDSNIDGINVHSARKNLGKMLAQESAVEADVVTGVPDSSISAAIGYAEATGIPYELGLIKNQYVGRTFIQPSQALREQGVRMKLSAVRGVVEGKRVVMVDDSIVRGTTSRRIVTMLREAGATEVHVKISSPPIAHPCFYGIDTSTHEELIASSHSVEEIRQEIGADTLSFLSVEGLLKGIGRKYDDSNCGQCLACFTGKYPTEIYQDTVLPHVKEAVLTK
Description: (§1) Plasmid pGZ1 was used for production of the wild type enzyme. Plasmid pGZ1 contains a 1.6 kb EcoRI-HindIII purF^+ fragment (Makaroff, C. A., Zalkin, H., Switzer, R. L., and Vollmer, S. J. (1983) J. Biol. Chem. 258, pp. 10586-10593) inserted into the corresponding sites of pUC18. For construction of mutants, the EcoRI-HindIII purF^+ DNA was transferred to pUC118 to yield pBsF. Mutations were constructed by the method of Kunkel et al. (Kunkel, T. A., Roberts, J. D., and Zakour, R. A. (1987) Methods Enzymol. 154, pp. 367-382) using pBsF phagemid DNA. The resulting plasmids were named pBsF/S283A, pBsF/K305Q, pBsF/R307Q, and pBsF/S347A.
Enzyme activity was assayed by measuring the initial rate of formation of the product glutamate. […] Incubation was at 37° C. for 6 min. The reaction was linear with time for at least 20 min under these conditions of assay. Reactions were quenched in a boiling water bath for 2 min, and glutamate was determined by the glutamate dehydrogenase method. The control reaction mixture contained all the components except PRPP.
(§2) Inhibition by nucleotides was determined by the standard assay to which varied concentrations of nucleotide were added. Synergistic inhibition was determined by varying the concentration of one nucleotide in the presence of a fixed concentration of a second nucleotide. Relative activity (see FIG. 1) refers to the enzyme activity at a given concentration of the varied nucleotide relative to that in the absence of the varied nucleotide. I0.5 values were calculated from plots of relative activity versus varied nucleotide concentration.
Site directed mutagenesis was utilized to modify amino acids comprising the A site and C site domains of the glutamine PRPP amidotransferase. These modified forms of amidotransferase were analyzed to determine the impact of the mutations on end-product inhibition and enzymatic activity. Inhibition by nucleotides was determined as described in Example 1.

[2] = biological target: T2, glutamine PRPP amidotransferase S347A mutant enzyme (Bacillus subtilis, UniProt P00497, S358A); assay type: biochemical
T2 construct: Enzymes of the B. subtilis class are synthesized with an NH2 terminal propeptide and an Fe—S center; made in house; host or cells: E. coli strain TX158 (purF) with plasmid pBsF/S347A
T2 sequence (P00497 12-476 S358A): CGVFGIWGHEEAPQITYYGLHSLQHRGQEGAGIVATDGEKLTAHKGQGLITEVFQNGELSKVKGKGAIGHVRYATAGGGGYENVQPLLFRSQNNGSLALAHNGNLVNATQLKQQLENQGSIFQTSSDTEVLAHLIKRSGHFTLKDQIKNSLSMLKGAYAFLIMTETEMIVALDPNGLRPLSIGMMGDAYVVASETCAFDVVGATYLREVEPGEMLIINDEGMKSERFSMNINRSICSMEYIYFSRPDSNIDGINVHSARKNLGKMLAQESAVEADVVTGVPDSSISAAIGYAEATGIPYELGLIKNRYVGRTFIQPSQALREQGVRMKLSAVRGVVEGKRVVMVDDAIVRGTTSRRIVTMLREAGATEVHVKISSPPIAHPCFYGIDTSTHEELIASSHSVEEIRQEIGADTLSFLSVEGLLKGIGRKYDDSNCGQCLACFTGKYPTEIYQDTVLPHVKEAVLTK
Protocol: (§3) Enzyme activity was assayed by measuring the initial rate of formation of the product glutamate. […] Incubation was at 37° C. for 6 min. […] Reactions were quenched in a boiling water bath for 2 min, and glutamate was determined by the glutamate dehydrogenase method.
as §2
(§4) These modified forms of amidotransferase were analyzed to determine the impact of the mutations on end-product inhibition and enzymatic activity. Inhibition by nucleotides was determined as described in Example 1.

[3] = biological target: T3, Bacillus subtilis glutamine PRPP amidotransferase, wild type (Bacillus subtilis, UniProt P00497); assay: Inhibition of enzyme activity (glutamate formation) by nucleotides, wild type; assay type: biochemical; conditions: for Hill coefficient from inhibition data: determined from inhibition data, PRPP present
T3 construct: Enzymes of the B. subtilis class are synthesized with an NH2 terminal propeptide; made in house; host or cells: E. coli strain TX158 (purF), plasmid pGZ1
Protocol: Plasmid pGZ1 was used for production of the wild type enzyme. […] For construction of mutants, the EcoRI-HindIII purF^+ DNA was transferred to pUC118 to yield pBsF. […] The resulting plasmids were named pBsF/S283A, pBsF/K305Q, pBsF/R307Q, and pBsF/S347A.
as §3, §2

[4] = biological target: T4, Bacillus subtilis glutamine PRPP amidotransferase variant S347A (Bacillus subtilis, UniProt P00497, S358A); assay: biochemical; assay type: biochemical
T4 construct: Enzymes of the B. subtilis class are synthesized with an NH2 terminal propeptide; made in house; host or cells: E. coli strain TX158 (purF), plasmid pBsF/S347A
T4 sequence (P00497 12-476 S358A): as above
Description: as §1, §3, §2, §4

[5] = biological target: T5, wild type B. subtilis glutamine PRPP amidotransferase (Bacillus subtilis, UniProt P00497); assay: Nucleotide binding by equilibrium dialysis; conditions: for Kd: apparent Kd, half-saturation of A and C sites
T5 construct: Enzymes of the B. subtilis class are synthesized with an NH2 terminal propeptide and an Fe—S center; made in house; host or cells: E. coli strain TX158 (purF) with plasmid pGZ1
T5 sequence (P00497 12-476): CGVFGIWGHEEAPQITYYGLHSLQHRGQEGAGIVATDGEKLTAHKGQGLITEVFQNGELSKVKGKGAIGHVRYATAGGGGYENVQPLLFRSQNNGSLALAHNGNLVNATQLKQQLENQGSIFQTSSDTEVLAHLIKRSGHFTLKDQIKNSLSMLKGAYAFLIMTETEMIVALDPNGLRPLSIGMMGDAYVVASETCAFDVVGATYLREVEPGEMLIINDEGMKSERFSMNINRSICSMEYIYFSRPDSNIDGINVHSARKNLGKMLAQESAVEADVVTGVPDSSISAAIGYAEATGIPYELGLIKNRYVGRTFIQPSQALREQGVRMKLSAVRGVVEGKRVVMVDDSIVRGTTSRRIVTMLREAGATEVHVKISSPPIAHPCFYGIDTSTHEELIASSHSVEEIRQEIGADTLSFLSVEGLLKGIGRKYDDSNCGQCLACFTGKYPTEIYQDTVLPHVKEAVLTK
Protocol: Nucleotide binding was determined by equilibrium dialysis using chambers of 150 μL that were separated by a 12000-14000 molecular weight dialysis membrane. […] In some experiments, the chambers with radioactive nucleotide also contained a fixed concentration of a second non-radioactive nucleotide. The other chamber contained 50 mM Tris-HCl (pH 7.5) and 50-200 μM enzyme, calculated as the subunit concentration, in a volume of 100 μL. Dialysis was carried out for 20 h at room temperature (˜22° C.) in a rotating apparatus. Samples of 80 μL were retrieved from each chamber and were counted for radioactivity. All experiments were performed in an anaerobic glovebox. […] Equilibrium binding data were fit to the Hill equation (Y=C [free ligand]^n/[…]+[free ligand]^n, where Y is the fractional saturation, C is the binding capacity, Kd is the dissociation constant, and n is the Hill coefficient) by nonlinear regression using Ultrafit software (Biosoft, Cambridge, UK).

[6] = I0.5, no fixed nucleotide, 2.5 mM PRPP, pH 8.0, 37° C.
[7] = fixed GMP 1.0 mM, read-out: I0.5
[8] = I0.5, fixed GMP 1.4 mM (footnote c)
[9] = no fixed nucleotide, at saturation ± standard error
[10] = fixed ADP 0.5 mM, read-out: I0.5
[11] = no fixed nucleotide, 2.5 mM PRPP, pH 8.0, 37° C., read-out: I0.5
[12] = I0.5, fixed ADP 0.8 mM (footnote c)

Structure (SMILES)	IC50 [1, 6] [µM]	syn. ([2]; fixed GMP 1.4 mM (footnote c))	Hill coefficient from inhibition data [3]	syn. (decreased I0.5 due to a second nucleotide) ([3]; fixed AMP 0.1 mM) [fold]	syn. (decreased I0.5 due to a second nucleotide) ([3]; fixed GMP 1.0 mM)	IC50 [3, 7] [µM]	concentration for 50% inhibition relative to AMP ([3]; no fixed nucleotide) [fold]	IC50 [4, 8] [µM]	IC50 [4, 6] [µM]	syn. (decreased I0.5 due to a second nucleotide) ([4]; fixed GMP 1.4 mM (footnote c)) [fold]	Hill coefficient ([5]; fixed GMP 1.0 mM)	Capacity [5, 9]	Hill coefficient ([5]; no fixed nucleotide, binding)	syn. ([2]; fixed ADP 0.8 mM (footnote c))	syn. (decreased I0.5 due to a second nucleotide) ([3]; fixed ADP 0.5 mM)	IC50 [3, 10] [µM]	IC50 [3, 11] [µM]	IC50 [4, 12] [µM]	syn. (decreased I0.5 due to a second nucleotide) ([4]; fixed ADP 0.8 mM (footnote c)) [fold]	Capacity ([5]; fixed ADP 0.5 mM)	also measured
Nc1ncnc2c1ncn2[C@@H]1O[C@H](COP(=O)(O)OP(=O)(O)O)[C@@H](O)[C@H]1O [ADP]	28000	37.0	3.8	1.9	59 fold and 59.0 fold	80	5	220	8100	37.0	1.7 ± 0.9	1.83 equivalents bound per subunit and 1.83 ± 0.26 equivalents bound per subunit	1.8 and 1.8 ± 0.65	–	–	–	–	–	–	–	IC50 ([1]; I0.5, fixed GMP 0.50 mM): 2400 µM; IC50 ([1]; I0.5, fixed GMP 5.0 mM): 180 µM; syn. (decreased I0.5 due to a second nucleotide) ([1]; fixed GMP 0.50 mM): 12.0 fold; syn. (decreased I0.5 due to a second nucleotide) ([1]; fixed GMP 5.0 mM): 156.0 fold; IC50 ([3]; I0.5, fixed GMP 0.25 mM): 240 µM; IC50 [3, 6]: 4700 µM; syn. (decreased I0.5 due to a second nucleotide) ([3]; fixed GMP 0.25 mM): 20 fold and 20.0 fold; syn. (decreased I0.5 due to a second nucleotide) ([3]; fixed GMP 0.50 mM): 29.0 fold; IC50 ([3]; fixed GMP 0.50 mM, read-out: I0.5): 160 µM; syn. (decreased I0.5 due to a second nucleotide) ([3]; fixed GMP 2.0 mM): 118.0 fold; IC50 ([3]; fixed GMP 2.0 mM, read-out: I0.5): 40 µM; syn. (decreased I0.5 due to a second nucleotide) ([3]; fixed GMP 4.0 mM): 188.0 fold; synergistic binding (decrease of Kd by second nucleotide) ([5]; ADP-GMP pair): 20 fold; equiv bound ([5]; GMP fixed at either 0.25 or 1.0 mM): approximately 1 equiv; Capacity ([5]; fixed GMP 0.25 mM): 0.82 ± 0.11 equivalents bound per subunit; Hill coefficient ([5]; fixed GMP 0.25 mM): 1.8 ± 0.8; Capacity ([5]; fixed GMP 1.0 mM): 0.94 ± 0.14 equivalents bound per subunit
Nc1ncnc2c1ncn2[C@@H]1O[C@H](COP(=O)(O)O)[C@@H](O)[C@H]1O [AMP]	2600	0.8	3.3-3.8	–	1.0 fold	940	–	1800	1500	0.8	2.1 ± 0.80	1.57 equivalents bound per subunit and 1.57 ± 0.27 equivalents bound per subunit	3.4 and 3.4 ± 1.8	2.3	1.4 fold	640	900	650	2.3	approximately 0.4 equivalents bound per subunit	Kd ([5]; Kd, no fixed nucleotide): 214 µM and > 500 µM; increase in binding affinity by second nucleotide ([5]; by GMP or ADP): 2-3 fold; Hill coefficient ([5]; fixed ADP 0.25 mM): 2.3 ± 1.2
Nc1nc2c(ncn2[C@@H]2O[C@H](COP(=O)(O)O)[C@@H](O)[C@H]2O)c(=O)[nH]1 [GMP]	50000	–	–	0.95	–	–	10	–	14000	–	–	–	–	33.0	63 fold and 63.0 fold	150	9400	440	33.0	1 equivalents bound per subunit and 0.98 ± 0.10 equivalents bound per subunit	IC50 ([1]; I0.5, fixed ADP 0.5 mM): 3300 µM; IC50 ([1]; I0.5, fixed ADP 2.5 mM): 760 µM; syn. (decreased I0.5 due to a second nucleotide) ([1]; fixed ADP 0.5 mM): 15.0 fold; syn. (decreased I0.5 due to a second nucleotide) ([1]; fixed ADP 2.5 mM): 66.0 fold; I0.5 increase compared to wild type ([2]; inhibition at the C site, ADP fixed): 3 fold; IC50 ([3]; fixed AMP 0.1 mM, read-out: I0.5): 9900 µM; concentration for 50% inhibition relative to ADP ([3]; no fixed nucleotide): 2 fold; I0.5 increase relative to wild type ([4]; inhibition at the C site): 3 fold; increased C site binding affinity relative to IMP and AMP ([5]; ADP bound to the A site): 3 fold; Hill coefficient ([5]; fixed ADP 0.5 mM): 2.1 ± 1.0; Kd of GMP for the free enzyme, estimated assuming 20-fold synergism ([5]; no fixed nucleotide): approximately 500 μM; Kd ([5]; no fixed nucleotide): too weak to detect
